In brackets after ≈: the same amount, converted by molar mass. Where two headings read alike, the source gives them in different places.
Legend:
Shigella flexneri SDINT = test: microbe, parasite or virus in culture; format: cell-based
Method: (§1) A total of six bacterial strains were tested for their susceptibility to compounds and these strains were taken from our laboratory collection (kindly provided by Dr. T. Ramamurthy, NICED, Kolkata). Among the clinical strains of Vibrio cholerae used in this study, strains NB2 and SG24(1) belonged to O1 and O139 serotypes, respectively. […] The bacterial strains were maintained on agar slant at 4 °C and subcultured on a fresh appropriate agar plates 24 h prior to any antibacterial test. The Mueller Hinton Agar (MHA) was used for the activation of bacteria. The Mueller Hinton Broth (MHB) and nutrient agar (Hi-Media) were used for the MIC and MBC determinations respectively.
(§2) MIC values were determined by a broth micro-dilution method as described earlier [14] with slight modifications. […] Then, 100 μl of each concentration was added in each well (96-well microplate) containing 95 μl of MHB and 5 μl of inoculums (at 1.5 × 10^6 CFU/ml) for final concentrations varying from 0.25–512 μg/ml. […] The plates were covered with sterile lids, then the contents of each well were mixed using a shaker and incubated at 35 °C for 24 h. […] MIC values were defined as the lowest sample concentrations that prevented this change in color indicating an inhibition of visible growth. Viable microorganisms reduced the yellow dye to a pink color. […] The lowest concentrations that yielded no growth after this subculturing were taken as the MBC values [15]. All the analyses were carried out in triplicate.

[1] = tested on: Vibrio cholerae, Shigella flexneri and Staphylococcus aureus; test: Broth microdilution MIC/MBC, summary over all six tested strains; format: cell-based; conditions: for MIC: read-out: antibacterial activity class (pure compounds)
Method: as §1, §2

Vibrio cholerae PC2 = test: Broth microdilution MIC/MBC; format: cell-based; conditions: for MBC / MBC/MIC: PC2
Method: as §1, §2

Vibrio cholerae SG24 (1) = test: Broth microdilution MIC/MBC; format: cell-based; conditions: for MBC / MIC: Vibrio cholerae; for MIC: 24 h; for MBC/MIC: Vibrio cholerae SG24 (1)
Method: as §1, §2

[2] = tested on: Staphylococcus aureus ATCC 25923; test: microbe, parasite or virus in culture; format: cell-based; conditions: for MBC / MIC: Staphylococcus aureus; for MBC: ATCC25923; for MIC: ATCC25923, 24 h
Method: as §1, §2

Vibrio cholerae NB2 = test: Broth microdilution MIC/MBC; format: cell-based; conditions: for MBC / MBC/MIC: NB2
Method: as §1, §2

Vibrio cholerae CO6 = test: Broth microdilution MIC/MBC; format: cell-based; conditions: for MBC / MBC/MIC: CO6; for MIC: CO6, 24 h
Method: as §1, §2

[3] = DPPH free radical scavenging assay; conditions: 30 min, room temperature, 517 nm
Method: The free radical scavenging activity of extracts as well as most of their isolated compounds was performed according to Brand-Williams et al. with slight modifications. Briefly, different concentrations (10 to 2000 μg/ml) of extracts/compounds and vitamin C (positive control) were thoroughly mixed with 3 ml of methanolic DPPH solution (20 mg/l) in test-tubes and the resulting solution was kept standing for 30 min at room temperature before the optical density (OD) was measured at 517 nm. The percentage radical scavenging activity was calculated from the following formula: % scavenging [DPPH] = [(A0–A1)/A0] × 100 [16]. Where A0 was the absorbance of the negative control (methanolic DPPH solution) and A1 was the absorbance in the presence of the samples. IC50 value was determined from the graph obtained using standard vitamin C by using the “y = mx + c” formula from the slope of the graph. All the analyses were carried out in triplicate.

[4] = Gallic acid equivalent antioxidant capacity (GAEAC) assay; conditions: ABTS/laccase, 420 nm, 240 s
Method: The GAEAC test was done as previously described [17] with slight modifications. In a quartz cuvette, to 950 μl acetate buffer (pH =5.0, 100 mM), the following were added: 20 μl laccase (1 mM stock solution), 20 μl test sample, 10 μl ABTS (2,2’-azinobis(3-ethylbenzothiazoline-6-sulfonic acid) (74 mM stock solution). The laccase were purified from Sclerotinia sclerotiorum according to the protocol described [18]. The sample concentrations in the assay mixture were 800, 400, 200, 100, 10 μg/ml for the extracts and 200, 100, 50, 25, 125.5 μg/ml for the isolated compounds. The content of the generated ABTS^●+ radical was measured at 420 nm after 240 s reaction time and was converted to gallic acid equivalents by the use of a calibration curve (Pearson’s correlation coefficient: r = 0.996) constructed with 0, 4, 10, 14, 28, 56, 84 μM gallic acid standards rather than Trolox. Experiments were done in triplicate.

Compound	MBC/MIC (Shigella flexneri SDINT)	MBC (Shigella flexneri SDINT; Shigella flexneri) [µg/mL]	MIC (Shigella flexneri SDINT; Shigella flexneri, 24 h) [µg/mL]	MIC [1] [µg/mL]	MBC (Vibrio cholerae PC2; Vibrio cholerae) [µg/mL]	MBC/MIC (Vibrio cholerae PC2; Vibrio cholerae)	MIC (Vibrio cholerae PC2; Vibrio cholerae, PC2, 24 h) [µg/mL]	MBC (Vibrio cholerae SG24 (1)) [µg/mL]	MIC (Vibrio cholerae SG24 (1)) [µg/mL]	MBC/MIC [2]	MBC [2] [µg/mL]	MIC [2] [µg/mL]	MBC (Vibrio cholerae NB2; Vibrio cholerae) [µg/mL]	MIC (Vibrio cholerae NB2; Vibrio cholerae, NB2, 24 h) [µg/mL]	MBC (Vibrio cholerae CO6) [µg/mL]	MBC/MIC (Vibrio cholerae CO6)	MIC (Vibrio cholerae CO6) [µg/mL]	MBC/MIC (Vibrio cholerae NB2; Vibrio cholerae)	also measured
COC(=O)C1=COC(OC2OC(CO)C(O)C(O)C2O)C2C1CCC2(C)O (stereo not drawn) [Compound 8, mussaenoside]	2	256 (≈ 656 µM)	128 (≈ 328 µM)	> 100	256 (≈ 656 µM)	2	128 (≈ 328 µM)	> 256	256 (≈ 656 µM)	2	128 (≈ 328 µM)	64 (≈ 164 µM)	> 256	128 (≈ 328 µM)	256 (≈ 656 µM)	1	256 (≈ 656 µM)	–	–
O=C1O[C@H]([C@@H](O)CO)C(O)=C1O [vitamin C, reference compound]	–	–	–	–	–	–	–	–	–	–	–	–	–	–	–	–	–	–	EC50 (concentration scavenging 50% of DPPH radical) [3]: 1.74 µg/mL
COC(=O)C1=CO[C@@H](O[C@@H]2O[C@H](CO)[C@@H](O)[C@H](O)[C@H]2O)[C@H]2[C@@H]1[C@H](O)C[C@]2(C)O [Compound 9, shanzhiside methyl ester]	2	256 (≈ 630 µM)	128 (≈ 315 µM)	> 100	256 (≈ 630 µM)	1	256 (≈ 630 µM)	128 (≈ 315 µM)	128 (≈ 315 µM)	2	256 (≈ 630 µM)	128 (≈ 315 µM)	128 (≈ 315 µM)	128 (≈ 315 µM)	> 256	–	128 (≈ 315 µM)	1	MBC/MIC (Vibrio cholerae SG24 (1)): 1
COC(=O)C1=COC(OC2OC(CO)C(O)C(O)C2O)C2C(COC(=O)C3=COC(OC4OC(CO)C(O)C(O)C4O)C4C(CO)=CCC34)=CCC12 (stereo not drawn) [Compound 4, canthiumoside 4]	–	–	–	–	–	–	–	–	–	–	–	–	–	–	–	–	–	–	EC50 (concentration scavenging 50% of DPPH radical) [3]: 178.57 µg/mL; GAEAC (gallic acid equivalent antioxidant capacity) [4]: 22.63 µg/mL
CC1(C)S[C@@H]2[C@H](NC(=O)[C@H](N)c3ccccc3)C(=O)N2[C@H]1C(=O)O [Ampicillin, reference compound]	–	> 512	> 512	–	> 512	–	> 512	16 (≈ 45.8 µM)	16 (≈ 45.8 µM)	1	8 (≈ 22.9 µM)	8 (≈ 22.9 µM)	> 512	> 512	16 (≈ 45.8 µM)	1	16 (≈ 45.8 µM)	–	MIC (Shigella flexneri SDINT): not active; MIC (Vibrio cholerae PC2; Vibrio cholerae PC2, 35 °C, 24 h): not active; MBC/MIC (Vibrio cholerae SG24 (1)): 1; MIC (Vibrio cholerae NB2; Vibrio cholerae NB2, 35 °C, 24 h): not active
COC(=O)C1=CO[C@@H](O)[C@@H]2C(COC(=O)C3=CO[C@@H](O)[C@@H]4C(COC(C)=O)=CC[C@H]34)=CC[C@H]12 [Compound 1, canthiumoside 1]	2	64 (≈ 138 µM)	32 (≈ 69.2 µM)	10 to 100 (≈ 21.6 to 216 µM)	64 (≈ 138 µM)	1	64 (≈ 138 µM)	128 (≈ 277 µM)	64 (≈ 138 µM)	1	32 (≈ 69.2 µM)	32 (≈ 69.2 µM)	64 (≈ 138 µM)	64 (≈ 138 µM)	64 (≈ 138 µM)	1	64 (≈ 138 µM)	1	MBC/MIC (Vibrio cholerae SG24 (1)): 2; EC50 (concentration scavenging 50% of DPPH radical) [3]: 2.03 µg/mL; GAEAC (gallic acid equivalent antioxidant capacity) [4]: 79.82 µg/mL; GAEAC (gallic acid equivalent antioxidant capacity) ([4]; listed as Canthiumoside 1): 79.82 to 92.35 µg/mL
COC(=O)C1=CO[C@@H](O)[C@H]2[C@@H]1CC[C@]2(C)O [Compound 7, linearin]	–	–	–	–	–	–	–	–	–	–	–	–	–	–	–	–	–	–	MIC (range over the tested bacteria) ([1]; range over all tested strains): 8 to 64 µg/mL
COC(=O)C1=COC(OC2OC(CO)C(O)C(O)C2O)C2C(COC(=O)C3=COC(OC(C)=O)C4C(C)CCC34)=CCC12 (stereo not drawn) [Compound 5a, canthiumoside 5a]	1	128 (≈ 210 µM)	128 (≈ 210 µM)	> 100	256 (≈ 419 µM)	2	128 (≈ 210 µM)	> 256	256 (≈ 419 µM)	1	128 (≈ 210 µM)	128 (≈ 210 µM)	128 (≈ 210 µM)	128 (≈ 210 µM)	256 (≈ 419 µM)	2	128 (≈ 210 µM)	1	–
COC(=O)C1=COC(OC2OC(CO)C(O)C(O)C2O)C2C(COC(=O)C3=COC(OC4OC(CO)C(O)C(O)C4O)C4C(COC(C)=O)=CCC34)=CCC12 (stereo not drawn) [Compound 3, canthiumoside 3]	–	> 256	256 (≈ 325 µM)	> 100	> 256	–	256 (≈ 325 µM)	–	> 256	–	> 256	256 (≈ 325 µM)	256 (≈ 325 µM)	256 (≈ 325 µM)	256 (≈ 325 µM)	2	128 (≈ 163 µM)	1	tested organisms inhibited [1]: 83.33%
COC(=O)C1=CO[C@@H](O)[C@H]2[C@@H]1[C@H](O)C[C@]2(C)O [compound 6]	–	64 (≈ 262 µM)	32 (≈ 131 µM)	> 100	256 (≈ 1050 µM)	–	128 (≈ 524 µM)	256 (≈ 1050 µM)	128 (≈ 524 µM)	–	64 (≈ 262 µM)	32 (≈ 131 µM)	256 (≈ 1050 µM)	256 (≈ 1050 µM)	256 (≈ 1050 µM)	–	256 (≈ 1050 µM)	–	–
COC(=O)C1=CO[C@@H](O)[C@H]2[C@@H]1CC[C@]2(C)O [compound 7]	–	16 (≈ 70.1 µM)	16 (≈ 70.1 µM)	10 to 100 (≈ 43.8 to 438 µM)	32 (≈ 140 µM)	–	32 (≈ 140 µM)	64 (≈ 280 µM)	32 (≈ 140 µM)	–	8 (≈ 35.1 µM)	8 (≈ 35.1 µM)	32 (≈ 140 µM)	32 (≈ 140 µM)	128 (≈ 561 µM)	–	64 (≈ 280 µM)	–	–
COC(=O)C1=COC(O)C2C(COC(=O)C3=COC(OC4OC(CO)C(O)C(O)C4O)C4C(COC(C)=O)=CCC34)=CCC12 (stereo not drawn) [Compound 2, canthiumoside 2]	2	256 (≈ 410 µM)	128 (≈ 205 µM)	> 100	256 (≈ 410 µM)	1	256 (≈ 410 µM)	> 256	256 (≈ 410 µM)	1	64 (≈ 102 µM)	64 (≈ 102 µM)	128 (≈ 205 µM)	128 (≈ 205 µM)	256 (≈ 410 µM)	2	128 (≈ 205 µM)	1	–
